Reference: US20140308675A1, “MUTAGENICITY TEST METHOD USING MAMMALIAN CELLS” (NISSIN FOODS HOLDINGS CO., LTD., priority 2011, published 2014)
Entries after “also recorded” stand apart in the source; their conditions may differ. Each block holds one compound with its values, some of them ahead of it.

Columns and labels:
[1] = tested on: MCF-7 cells transfected with PGV-p53R2×3-Luc; experiment: Luciferase reporter, PGV-p53R2×3-Luc transformant of MCF-7; format: cell-based, human; conditions: MCF-7, PGV-p53R2×3-Luc
Description: (§1) To the obtained various transformants of MCF-7, HepG2, A549, HCT116, HEK293, and NB1RGB, adriamycin dissolved in DMSO was added, followed by culture for 8 hours. After that, luciferase activities were measured in the same manner as in the TK6 cells.
(§2) Transfection with plasmid PGV-p53R2×3-Luc, culture, and luciferase activity measurement were performed in the same manner as in Reference Example 1 described above except that the transformant was cultured for the following culture time: 16 hours in TK6 cells; 24 hours in MCF-7, HepG2, A549, HCT116, and HEK293; and 18 hours in NB1RGB.

[2] = tested on: HCT116 cells transfected with pGL4-p53R2×3-SV40-Luc2; experiment: Luciferase reporter, pGL4-p53R2×3-SV40-Luc2 transformant of HCT116; format: cell-based, human; conditions: HCT116, pGL4-p53R2×3-SV40-Luc2; 8 hours after contact; FIG. 4
Text: (§3) The obtained various transformants of the MCF-7 cells, the HepG2 cells, the A549 cells, the HCT116 cells, the HEK293 cells, and the NB1RGB cells were used to measure luciferase activities in the same manner as in the TK6 cells.

[3] = tested on: TK6 cells transfected with pGL4-p53R2×3-SV40-Luc2; experiment: Mutagenicity test: luciferase reporter, transient pGL4-p53R2×3-SV40-Luc2 transformant; format: cell-based, human; conditions: 0.003-0.7 μg/mL
Description: Wild-type p53 of a human lymphoblast cell line TK6 cell was confirmed to be normal by DNA sequencing (ABI Prism BigDye Terminater v3.0; manufactured by Applied Biosystems) using primers for sequencing 5′-ACACGCTTCCCTGGATTG-3′ (SEQ ID NO: 17) and 5′-[…]-3′ (SEQ ID NO: 18).
It should be noted that the amount of pGL4-p53R2×3-SV40-Luc2 for transfection was adjusted to 0.25 ng/well.
Next, after the removal of the medium, a cell lysis solution (manufactured by Promega) was added at 25 μl/well, and the whole was left to stand at room temperature for 15 minutes. The plate was set in a luminometer LB96P with an enzyme substrate automatic injector (manufactured by Berthold), and a substrate solution (manufactured by Promega) was automatically dispensed at 30 μL/well to measure luciferase activities.
Wild-type p53 of a human lymphoblast cell line TK6 was confirmed to be normal in the same manner as described above. […] It should be noted that the amount of pGL4-p53R2×3-SV40-Luc2 for transfection was adjusted to 0.25 ng/well.

[4] = tested on: stable expression cells TK6/p53R2×3-Luc2P; experiment: Mutagenicity test: luciferase reporter, stable expression cells TK6/p53R2×3-Luc2P
[5] = tested on: NB1RGB cells transfected with pGL4-p53R2×3-SV40-Luc2; experiment: Luciferase reporter, pGL4-p53R2×3-SV40-Luc2 transformant of NB1RGB; format: cell-based, human; conditions: 8 hours after contact, FIG. 4
Text: as §3

[6] = tested on: HepG2 cells transfected with pGL4-p53R2×3-SV40-Luc2; experiment: Luciferase reporter, pGL4-p53R2×3-SV40-Luc2 transformant of HepG2; format: cell-based, human; conditions: HepG2, pGL4-p53R2×3-SV40-Luc2; 8 hours after contact; FIG. 4
Text: as §3

[7] = tested on: A549 cells transfected with pGL4-p53R2×3-SV40-Luc2; experiment: Luciferase reporter, pGL4-p53R2×3-SV40-Luc2 transformant of A549; format: cell-based, human; conditions: A549, pGL4-p53R2×3-SV40-Luc2; 8 hours after contact; FIG. 4
Text: as §3

[8] = tested on: HEK293 cells transfected with pGL4-p53R2×3-SV40-Luc2; experiment: Luciferase reporter, pGL4-p53R2×3-SV40-Luc2 transformant of HEK293; format: cell-based, human; conditions: HEK293, pGL4-p53R2×3-SV40-Luc2; 8 hours after contact; FIG. 4
Text: as §3

[9] = tested on: HepG2 cells transfected with PGV-p53R2×3-Luc; experiment: Luciferase reporter, PGV-p53R2×3-Luc transformant of HepG2; format: cell-based, human; conditions: HepG2, PGV-p53R2×3-Luc
Description: as §1, §2

[10] = tested on: TK6 cells transfected with PGV-p53R2×3-Luc; experiment: Mutagenicity test: luciferase reporter, transient PGV-p53R2×3-Luc transformant; format: cell-based, human; conditions: TK6, PGV-p53R2×3-Luc
Description: Next, the same operation as described above was performed to measure luciferase activities except that the plasmid PGV-p53R2×3-Luc prepared in Example 1 of JP 4243716 B2 was used in place of pGL4-p53R2×3-SV40-Luc2.
as §2

[11] = tested on: NB1RGB cells transfected with PGV-p53R2×3-Luc; experiment: Luciferase reporter, PGV-p53R2×3-Luc transformant of NB1RGB; format: cell-based, human
Description: as §1, §2

[12] = tested on: A549 cells transfected with PGV-p53R2×3-Luc; experiment: Luciferase reporter, PGV-p53R2×3-Luc transformant of A549; format: cell-based, human; conditions: A549, PGV-p53R2×3-Luc
Description: as §1, §2

[13] = tested on: HCT116 cells transfected with PGV-p53R2×3-Luc; experiment: Luciferase reporter, PGV-p53R2×3-Luc transformant of HCT116; format: cell-based, human; conditions: HCT116, PGV-p53R2×3-Luc
Description: as §1, §2

[14] = tested on: MCF-7 cells transfected with pGL4-p53R2×3-SV40-Luc2; experiment: Luciferase reporter, pGL4-p53R2×3-SV40-Luc2 transformant of MCF-7; format: cell-based, human; conditions: MCF-7, pGL4-p53R2×3-SV40-Luc2; 8 hours after contact; FIG. 4
Text: as §3

[15] = tested on: HEK293 cells transfected with PGV-p53R2×3-Luc; experiment: Luciferase reporter, PGV-p53R2×3-Luc transformant of HEK293; format: cell-based, human; conditions: HEK293, PGV-p53R2×3-Luc
Description: as §1, §2

[16] = tested on: cells TK6/p53R2×3-Luc2P/Rluc; experiment: Mutagenicity test with internal control, cells TK6/p53R2×3-Luc2P/Rluc; format: cell-based, human; conditions: 0.1-20 μg/mL; 6 hours; FIG. 11
Description: Next, in accordance with the method of Example 8, cells stably expressing Luc2P and Rluc were acquired and named TK6/p53R2×3-Luc2P/Rluc.
Next, the above-mentioned two kinds of cells were brought into contact with 5-aza-2′-deoxycytidine (5-aza-dC).
After the removal of the medium, the expression amount of the Luc2P gene was determined as a relative value to the expression amount of the Rluc gene. Specifically, through the use of a luminometer LB96P with an enzyme substrate automatic injector (manufactured by Berthold), first, a substrate solution for firefly luciferase measurement (manufactured by Promega) was dispensed at 30 μL/well to measure the expression amount of the Luc2P gene. After that, a substrate solution for Sea pansy luciferase measurement (manufactured by Promega) was further dispensed at 30 μL/well to determine the expression amount of the Rluc gene.

Luciferase activity (% of Solvent control) ([1]; culture 24 hours, FIG. 6): high luciferase activity
Luciferase activity compared with the other cells ([1]; culture 24 hours, FIG. 6): higher luciferase activities
Luciferase activity (% of Solvent control) [2]: only slight luciferase activity
Luciferase activity (% of Solvent control) [5]: only slight luciferase activity
Luciferase activity (% of Solvent control) [6]: only slight luciferase activity
Luciferase activity (% of Solvent control) [7]: only slight luciferase activity
Luciferase activity (% of Solvent control) [8]: only slight luciferase activity
Luciferase activity (% of Solvent control) ([9]; culture 24 hours, FIG. 6): high luciferase activity
Luciferase activity compared with the other cells ([9]; culture 24 hours, FIG. 6): higher luciferase activities
Luciferase activity (% of Solvent control) ([11]; culture 18 hours, FIG. 6): high luciferase activity
Luciferase activity (% of Solvent control) ([12]; culture 24 hours, FIG. 6): high luciferase activity
Luciferase activity (% of Solvent control) ([13]; culture 24 hours, FIG. 6): high luciferase activity
Luciferase activity (% of Solvent control) [14]: only slight luciferase activity
Luciferase activity (% of Solvent control) ([15]; culture 24 hours, FIG. 6): high luciferase activity
SMILES: COc1cccc2c1C(=O)c1c(O)c3c(c(O)c1C2=O)C[C@@](O)(C(=O)CO)C[C@@H]3O[C@H]1C[C@H](N)[C@H](O)[C@H](C)O1 [adriamycin]
Luciferase activity (% of Solvent control) ([1]; contact for 8 hours, FIG. 5): only a slight increase in luciferase activity
Luciferase activity (% of Solvent control) ([3]; contact for 4 hours): such an increase in luciferase activity due to an increase in concentration of adriamycin as to be sufficient for performing a mutagenicity test
Luciferase activity (% of Solvent control) ([3]; contact for 8 hours): very high luciferase activity
Luciferase activity (% of Solvent control) ([3]; dependence on concentration, FIG. 3): an increase in luciferase activity due to an increase in concentration of adriamycin
Luciferase activity (% of Solvent control), time-dependent change ([4]; 0.2 μg/mL, 2, 4, 6 and 8 hours, FIG. 9): an increase in luciferase activity due to an increase in concentration of adriamycin
Luciferase activity (% of Solvent control) ([4]; 0.003-0.7 μg/mL, 6 hours, FIG. 10): an increase in luciferase activity due to an increase in concentration of adriamycin
Luciferase activity (% of Solvent control) ([9]; contact for 8 hours, FIG. 5): only a slight increase in luciferase activity
Luciferase activity (% of Solvent control) ([10]; 0.003-0.7 μg/mL, contact for 8 hours): very small luciferase activity; also recorded: only a slight increase in luciferase activity
Luciferase activity (% of Solvent control) ([10]; culture 16 hours, FIG. 6): high luciferase activity
Luciferase activity (% of Solvent control) ([11]; contact for 8 hours, FIG. 5): only a slight increase in luciferase activity
Luciferase activity (% of Solvent control) ([12]; contact for 8 hours, FIG. 5): only a slight increase in luciferase activity
Luciferase activity (% of Solvent control) ([13]; contact for 8 hours, FIG. 5): only a slight increase in luciferase activity
Luciferase activity (% of Solvent control) ([15]; contact for 8 hours, FIG. 5): only a slight increase in luciferase activity

SMILES: Nc1ncn([C@H]2C[C@H](O)[C@@H](CO)O2)c(=O)n1 [5-aza-dC, 5-aza-2′-deoxycytidine]
Firefly luciferase (Luc2P) activity not corrected with Rluc activity (w/o internal control) [16]: an increase in measured value due to an increase in concentration of 5-aza-dC
Luc2P activity corrected with Rluc activity as an internal control (with internal control) [16]: no increase in measured value
